Assay [1] addresses Sodium-dependent serotonin transporter (Homo sapiens, UniProt P31645). Put plainly: Inhibition of radiolabeled serotonin reuptake at human SERT expressed in HEK293 cells. It counts as cell-based.
In assay [2] the target is Sodium-dependent noradrenaline transporter (Homo sapiens, UniProt P23975). In words: Inhibition of radiolabeled noradrenaline reuptake at human NET expressed in HEK293 cells. Format: cell-based.
The target in assay [3] is Sodium-dependent dopamine transporter (Homo sapiens, UniProt Q01959). Put plainly: Inhibition of radiolabeled dopamine reuptake at human DAT expressed in HEK293 cells. Format: cell-based.
Chain of Sodium-dependent dopamine transporter (Q01959 whole entry): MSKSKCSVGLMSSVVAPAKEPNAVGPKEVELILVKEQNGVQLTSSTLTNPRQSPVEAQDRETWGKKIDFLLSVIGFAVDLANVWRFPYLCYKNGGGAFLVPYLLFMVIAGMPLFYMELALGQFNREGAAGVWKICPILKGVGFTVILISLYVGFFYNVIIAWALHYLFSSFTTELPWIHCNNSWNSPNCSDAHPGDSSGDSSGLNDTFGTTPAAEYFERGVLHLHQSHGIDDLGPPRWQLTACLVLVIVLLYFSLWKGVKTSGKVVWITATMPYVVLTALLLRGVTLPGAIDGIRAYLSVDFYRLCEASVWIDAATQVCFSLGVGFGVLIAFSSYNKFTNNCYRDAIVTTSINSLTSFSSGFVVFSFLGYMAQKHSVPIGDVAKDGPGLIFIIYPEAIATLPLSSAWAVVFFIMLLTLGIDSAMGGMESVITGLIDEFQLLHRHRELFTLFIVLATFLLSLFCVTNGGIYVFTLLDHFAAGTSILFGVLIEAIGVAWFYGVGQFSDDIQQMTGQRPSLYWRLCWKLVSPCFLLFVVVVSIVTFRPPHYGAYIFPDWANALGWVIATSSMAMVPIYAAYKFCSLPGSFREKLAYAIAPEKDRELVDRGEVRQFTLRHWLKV
The target of assay [4] is Voltage-gated inwardly rectifying potassium channel KCNH2 (Homo sapiens, UniProt Q12809). In words: Displacement of [3H]dofetilide from human ERG expressed in HEK293 cells. In general terms: Loss of bound radioactivity is the signal in a displacement assay; it reports binding, not function.
Chain of Voltage-gated inwardly rectifying potassium channel KCNH2 (Q12809 whole entry): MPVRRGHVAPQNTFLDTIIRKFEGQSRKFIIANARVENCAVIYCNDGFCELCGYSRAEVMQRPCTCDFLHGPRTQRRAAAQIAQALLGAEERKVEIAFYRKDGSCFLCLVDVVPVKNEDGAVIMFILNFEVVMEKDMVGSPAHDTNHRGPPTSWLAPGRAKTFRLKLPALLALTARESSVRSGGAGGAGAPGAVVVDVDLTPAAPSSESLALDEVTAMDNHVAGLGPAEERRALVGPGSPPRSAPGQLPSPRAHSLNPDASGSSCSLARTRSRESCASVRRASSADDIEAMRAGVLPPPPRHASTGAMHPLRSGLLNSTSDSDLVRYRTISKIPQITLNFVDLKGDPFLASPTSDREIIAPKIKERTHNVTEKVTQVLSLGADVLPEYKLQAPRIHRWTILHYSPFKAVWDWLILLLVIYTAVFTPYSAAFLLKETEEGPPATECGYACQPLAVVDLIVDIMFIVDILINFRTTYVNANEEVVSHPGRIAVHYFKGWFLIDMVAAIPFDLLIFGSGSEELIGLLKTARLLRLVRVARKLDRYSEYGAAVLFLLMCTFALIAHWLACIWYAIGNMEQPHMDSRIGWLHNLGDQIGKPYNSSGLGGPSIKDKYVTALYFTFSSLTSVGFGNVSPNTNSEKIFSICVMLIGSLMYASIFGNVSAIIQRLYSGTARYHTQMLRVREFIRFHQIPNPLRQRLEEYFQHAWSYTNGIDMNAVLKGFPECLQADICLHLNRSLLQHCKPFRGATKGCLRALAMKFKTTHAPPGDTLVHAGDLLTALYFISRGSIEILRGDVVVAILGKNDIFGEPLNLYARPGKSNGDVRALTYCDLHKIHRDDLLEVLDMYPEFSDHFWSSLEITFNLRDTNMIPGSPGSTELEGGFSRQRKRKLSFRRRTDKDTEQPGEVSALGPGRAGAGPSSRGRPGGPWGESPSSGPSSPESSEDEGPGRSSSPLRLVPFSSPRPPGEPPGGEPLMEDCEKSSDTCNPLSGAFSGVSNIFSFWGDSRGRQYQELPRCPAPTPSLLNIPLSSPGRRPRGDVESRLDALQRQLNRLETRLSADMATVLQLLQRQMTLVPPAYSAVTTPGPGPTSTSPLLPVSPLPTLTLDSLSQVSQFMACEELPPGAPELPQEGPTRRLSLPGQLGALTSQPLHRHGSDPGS
The target in assay [5] is T1, 5-hydroxytryptamine receptor 3A (Homo sapiens, UniProt P46098).
T1 sequence (P46098 whole entry): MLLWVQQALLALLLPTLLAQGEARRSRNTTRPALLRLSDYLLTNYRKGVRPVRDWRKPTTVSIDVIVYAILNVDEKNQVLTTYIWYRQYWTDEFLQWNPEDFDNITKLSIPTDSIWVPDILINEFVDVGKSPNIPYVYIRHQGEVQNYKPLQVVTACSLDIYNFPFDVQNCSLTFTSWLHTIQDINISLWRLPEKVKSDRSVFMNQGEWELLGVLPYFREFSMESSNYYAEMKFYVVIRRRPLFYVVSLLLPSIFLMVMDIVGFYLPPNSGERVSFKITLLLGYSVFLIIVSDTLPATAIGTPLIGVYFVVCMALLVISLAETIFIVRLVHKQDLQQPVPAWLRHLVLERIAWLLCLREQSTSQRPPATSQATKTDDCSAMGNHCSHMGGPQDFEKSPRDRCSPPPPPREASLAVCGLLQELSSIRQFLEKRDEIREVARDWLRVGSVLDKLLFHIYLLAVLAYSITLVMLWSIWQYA
In words: Displacement of [3H]granisetron from human 5HT3 receptor expressed in HEK293 cells. Format: cell-based.

The record followed here is ChEMBL document CHEMBL1153958, “Design and optimization of selective serotonin re-uptake inhibitors with high synthetic accessibility. Part 1” (Bioorg Med Chem Lett, 2009).

Chain of Sodium-dependent serotonin transporter (P31645 whole entry): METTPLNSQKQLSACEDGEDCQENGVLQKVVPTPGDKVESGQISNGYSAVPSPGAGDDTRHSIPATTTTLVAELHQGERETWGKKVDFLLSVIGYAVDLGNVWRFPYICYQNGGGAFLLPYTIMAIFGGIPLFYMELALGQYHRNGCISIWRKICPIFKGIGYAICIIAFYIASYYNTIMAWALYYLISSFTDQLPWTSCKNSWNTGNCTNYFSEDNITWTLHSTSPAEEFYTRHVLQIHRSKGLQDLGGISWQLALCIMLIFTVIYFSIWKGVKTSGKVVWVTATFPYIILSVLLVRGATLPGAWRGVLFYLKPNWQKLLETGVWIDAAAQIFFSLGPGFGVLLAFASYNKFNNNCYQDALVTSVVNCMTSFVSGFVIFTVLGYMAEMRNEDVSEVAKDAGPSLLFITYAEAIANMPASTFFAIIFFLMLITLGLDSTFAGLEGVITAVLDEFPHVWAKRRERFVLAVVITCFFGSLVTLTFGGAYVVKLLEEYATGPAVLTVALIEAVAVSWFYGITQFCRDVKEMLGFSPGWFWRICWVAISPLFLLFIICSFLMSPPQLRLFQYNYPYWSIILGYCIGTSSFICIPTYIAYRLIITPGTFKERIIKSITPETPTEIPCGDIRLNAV
Chain of Sodium-dependent noradrenaline transporter (P23975 whole entry): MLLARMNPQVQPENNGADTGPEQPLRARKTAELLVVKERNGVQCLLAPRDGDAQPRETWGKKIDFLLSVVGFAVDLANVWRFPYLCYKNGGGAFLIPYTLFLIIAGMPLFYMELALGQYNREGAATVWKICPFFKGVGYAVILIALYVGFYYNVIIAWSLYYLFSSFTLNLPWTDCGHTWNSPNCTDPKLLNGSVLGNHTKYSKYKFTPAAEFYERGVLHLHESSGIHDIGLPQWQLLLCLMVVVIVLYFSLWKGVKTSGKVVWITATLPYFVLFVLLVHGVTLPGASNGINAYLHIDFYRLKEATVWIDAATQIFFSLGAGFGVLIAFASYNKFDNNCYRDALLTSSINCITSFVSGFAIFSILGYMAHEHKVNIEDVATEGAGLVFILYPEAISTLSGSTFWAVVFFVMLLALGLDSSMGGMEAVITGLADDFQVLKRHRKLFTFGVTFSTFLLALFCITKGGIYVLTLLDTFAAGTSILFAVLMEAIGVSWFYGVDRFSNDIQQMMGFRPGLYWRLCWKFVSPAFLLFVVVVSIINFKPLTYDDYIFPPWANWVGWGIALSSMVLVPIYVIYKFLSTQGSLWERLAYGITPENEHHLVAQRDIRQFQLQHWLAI

With `Cc1c(CCN2CCNCC2)ccc2cc(F)ccc12`, the IC50 in assay [1] is 4 nM; in assay [2] it was 8400 nM; in assay [3], greater than 31000 nM. The same compound had a Ki in assay [4] of 10100 nM.
As for `N#Cc1ccc2ccc(OCC3CCNCC3)cc2c1`, the figures for the concentration for half-maximal inhibition (IC50) in assay [1], in assay [2] and in assay [3] were 3 nM, 4400 nM and 8800 nM, respectively. Further, the inhibition constant Ki stood at 3500 nM in assay [4] and 404 nM in assay [5].
Turning to `c1ccc2cc(CO[C@H]3CCNC3)ccc2c1`, the values for the IC50 in assay [1], in assay [2] and in assay [3] were 23 nM, 2900 nM and 15000 nM, respectively. Further, in assay [4], affinity was put at a Ki of 15700 nM.
On to `CCN([C@@H]1CCNC1)S(=O)(=O)c1ccc2ccccc2c1`, for which the IC50 was 30 nM in assay [1], 2600 nM in assay [2] and greater than 30000 nM in assay [3].
As to `c1ccc2cc(OCC3CCNCC3)ccc2c1`, the IC50 in assay [1] is 8 nM; in assay [2] it was 1800 nM; in assay [3], greater than 7000 nM. Besides, the Ki in assay [5] is 311 nM.
`Fc1ccc2cc(CCN3CCNCC3)ccc2c1`: the IC50 worked out at 11 nM in assay [1], 10500 nM in assay [2] and 24000 nM in assay [3]. In assay [4], affinity was put at a Ki of 8500 nM.
In the case of `N#Cc1ccc2cc(OC[C@H]3CCNC3)ccc2c1`, the IC50 in assay [1] amounted to 37 nM; in assay [2], 200 nM.
Consider `N#Cc1ccc2cc(OCC3CCNCC3)ccc2c1`, for which the 50% inhibitory concentration (IC50) in assay [1] came to 15 nM; in assay [2], 1900 nM; in assay [3], 6000 nM.
In the case of `CN([C@@H]1CCNC1)S(=O)(=O)c1ccc2ccccc2c1`, the IC50 came out at 138 nM in assay [1] and 3000 nM in assay [2].
On to `CN([C@H]1CCNC1)S(=O)(=O)c1ccc2ccccc2c1`, for which, in assay [1], the IC50 is greater than 400 nM.
Regarding `CN(Cc1ccc2ccccc2c1)[C@@H]1CCNC1`, the figures for the IC50 in assay [1], in assay [2] and in assay [3] were 119 nM, 3000 nM and 3000 nM, respectively.
With `c1ccc2cc(CO[C@@H]3CCNC3)ccc2c1`, the concentration for half-maximal inhibition (IC50) was determined as 20 nM in assay [1], 1200 nM in assay [2] and 3800 nM in assay [3]. The affinity in assay [4] corresponds to a Ki of 16400 nM.
Take `N#Cc1ccc2cc(CO[C@H]3CCNC3)ccc2c1`: the IC50 came to 3 nM in assay [1], 6800 nM in assay [2] and 861 nM in assay [3]. This compound also yielded a Ki in assay [4] of 4500 nM.
Turning to `Fc1ccc2cc(CO[C@@H]3CCNC3)ccc2c1`, the figures for the IC50 in assay [1], in assay [2] and in assay [3] were 4 nM, 10600 nM and 2100 nM, respectively. For the same compound, the affinity in assay [4] corresponds to a Ki of 10300 nM.
With `CCN(C1CCNCC1)S(=O)(=O)c1ccc2ccccc2c1`, the IC50 in assay [1] was greater than 400 nM; in assay [2], greater than 10000 nM; in assay [3] it was greater than 10000 nM.
On to `CCCCN(Cc1ccc2ccccc2c1)[C@H]1CCNC1`, for which the IC50 in assay [1] was determined as 0.3 nM; in assay [2] it was 80 nM; in assay [3] it was 88 nM.
As to `CC(C)CN(Cc1ccc2ccccc2c1)[C@@H]1CCNC1`, the figures for the 50% inhibitory concentration (IC50) in assay [1], in assay [2] and in assay [3] were 5 nM, 80 nM and 66 nM, respectively.
In assay [1], `c1ccc2cc(CCN3CCNCC3)ccc2c1` yielded an IC50 of 88 nM.
As to `N#Cc1ccc2cc(OC[C@@H]3CCNC3)ccc2c1`, the IC50 is 42 nM in assay [1] and 772 nM in assay [2].
`CN(Cc1ccc2ccccc2c1)[C@H]1CCNC1`: the IC50 came out at 13 nM in assay [1], 5400 nM in assay [2] and 7700 nM in assay [3]. This compound also showed a Ki in assay [4] greater than 5000 nM.
As for `c1ccc2cc(CN(C3CCC3)C3CCNCC3)ccc2c1`, the figures for the IC50 in assay [1], in assay [2] and in assay [3] were 2 nM, 1500 nM and 210 nM, respectively.
Take `CCCCN(C1CCNCC1)S(=O)(=O)c1ccc2ccccc2c1`: the IC50 stood at 14 nM in assay [1], 40000 nM in assay [2] and 19000 nM in assay [3]. Further, the Ki in assay [4] amounted to 716 nM.
Taken in the same sequence, the figures for `CCCCN([C@H]1CCNC1)S(=O)(=O)c1ccc2ccccc2c1` were 16 nM, 5600 nM, greater than 30000 nM and 412 nM.
In the same order, the values of `c1ccc2cc(OCC3CCNC3)ccc2c1` (racemic) are 25 nM, 1400 nM, 1000 nM and greater than 5500 nM.
Consider `COCC(Oc1ccc2ccccc2c1)C1CCNCC1` (racemic), for which the results for the IC50 in assay [1] and in assay [2] were 5 nM and 827 nM, respectively. This compound also returned a Ki in assay [5] greater than 10000 nM.
For `c1ccc2cc(COC3CCNCC3)ccc2c1` [LITOXETINE], the half-maximal inhibitory concentration (IC50) in assay [1] stood at 6 nM; in assay [2], 6500 nM; in assay [3], 1300 nM.

A word on the IC50: it is the concentration that gives 50% inhibition. A higher IC50 goes with weaker potency in that assay. Broadly, the Ki is the dissociation constant of the complex between target and ligand, obtained from inhibition or displacement. The low end stands for tighter binding, the high end for weaker binding.
